According to the supplement of paper PMC6045584:
± gives the standard deviation of the averaged measurements.

Experiments:
RESVERATROL = compound: Oc1ccc(/C=C/c2cc(O)cc(O)c2)cc1 [RESVERATROL]; test: surviving fraction relative to DMSO-only wells; higher = less growth inhibition; details: exposure time: 5 days
In short: (§1)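 At 250–500 cells per well in 384-well plates, log-phase tumour cell lines were seeded and, 24 hours on, exposed continuously for five days to inhibitors at 0.5, 1, 5, 10, 50, 100, 500 and 1000 nM. Viability readout was CellTiter-Glo luminescence, reported as surviving fraction normalised to the median of DMSO-only wells.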

NUTLIN3 = compound: COc1ccc(C2=N[C@@H](c3ccc(Cl)cc3)[C@@H](c3ccc(Cl)cc3)N2C(=O)N2CCNC(=O)C2)c(OC(C)C)c1 [NUTLIN3]; test: as above; details: exposure time: 5 days
In short: as §1

| Test System | surviving fraction (RESVERATROL; 0.5 nM) | surviving fraction (RESVERATROL; 1 nM) | surviving fraction (RESVERATROL; 5 nM) | surviving fraction (RESVERATROL; 10 nM) | surviving fraction (RESVERATROL; 50 nM) | surviving fraction (RESVERATROL; 100 nM) | surviving fraction (RESVERATROL; 500 nM) | surviving fraction (RESVERATROL; 1000 nM) | surviving fraction (NUTLIN3; 0.5 nM) | surviving fraction (NUTLIN3; 1 nM) | surviving fraction (NUTLIN3; 5 nM) | surviving fraction (NUTLIN3; 10 nM) | surviving fraction (NUTLIN3; 50 nM) | surviving fraction (NUTLIN3; 100 nM) | surviving fraction (NUTLIN3; 500 nM) | surviving fraction (NUTLIN3; 1000 nM) |
| --- | --- | --- | --- | --- | --- | --- | --- | --- | --- | --- | --- | --- | --- | --- | --- | --- |
| 22RV1 PROSTATE | 1.01 ± 0.05 | 1.04 ± 0.076 | 1.05 ± 0.067 | 1.04 ± 0.024 | 0.981 ± 0.015 | 1.09 ± 0.032 | 0.961 ± 0.12 | 1.05 ± 0.079 | 1.01 ± 0.046 | 1.04 ± 0.013 | 0.96 ± 0.068 | 0.99367 ± 0.00058 | 0.981 ± 0.079 | 1.01 ± 0.074 | 0.95 ± 0.062 | 0.777 ± 0.047 |
| 93VU HEADNECK | 1.07 ± 0.11 | 1.07 ± 0.095 | 1.11 ± 0.065 | 1.14 ± 0.078 | 1.149 ± 0.0099 | 1.22 ± 0.16 | 1.1 ± 0.068 | 1.11 ± 0.15 | 1 ± 0.12 | 0.982 ± 0.14 | 1.09 ± 0.1 | 1.1 ± 0.076 | 1.12 ± 0.12 | 1.21 ± 0.013 | 1.05 ± 0.12 | 1.02 ± 0.025 |
| 143B BONE | 0.925 ± 0.14 | 1.07 ± 0.016 | 1.01 ± 0.021 | 1.065 ± 0.0021 | 0.885 ± 0.19 | 0.947 ± 0.17 | 1.01 ± 0.037 | 1.11 ± 0.057 | 1.04 ± 0.019 | 1.02 ± 0.022 | 1.03 ± 0.029 | 1.024 ± 0.0085 | 1.06 ± 0.039 | 1.029 ± 0.0099 | 1.05 ± 0.017 | 1.01 ± 0.073 |
| A549 LUNG | 1.03 ± 0.011 | 1.07 ± 0.043 | 1.05 ± 0.024 | 1.05 ± 0.026 | 1.04 ± 0.021 | 1.09 ± 0.06 | 1.07 ± 0.044 | 1.11 ± 0.062 | 0.984 ± 0.03 | 0.996 ± 0.031 | 0.963 ± 0.026 | 0.953 ± 0.016 | 1.01 ± 0.084 | 1.02 ± 0.019 | 1.04 ± 0.053 | 1.08 ± 0.061 |
| ASKA SYNOVIAL | 1.12 ± 0.019 | 1.15 ± 0.089 | 1.22 ± 0.077 | 1.25 ± 0.058 | 1.12 ± 0.13 | 1.22 ± 0.051 | 1.1 ± 0.072 | 1.13 ± 0.1 | 1.04 ± 0.04 | 1.13 ± 0.039 | 1.2 ± 0.055 | 1.03 ± 0.015 | 1.02 ± 0.064 | 1.05 ± 0.041 | 0.748 ± 0.035 | 0.512 ± 0.014 |
| BT20 BREAST | 1.05 ± 0.052 | 1.13 ± 0.1 | 1.13 ± 0.038 | 1.15 ± 0.059 | 1.06 ± 0.037 | 1.12 ± 0.078 | 1.12 ± 0.19 | 1.25 ± 0.12 | 1.1 ± 0.18 | 1.11 ± 0.14 | 1.09 ± 0.07 | 1.01 ± 0.14 | 1.05 ± 0.24 | 1.07 ± 0.23 | 1.15 ± 0.25 | 1.12 ± 0.18 |
| BT549 BREAST | 0.97 ± 0.081 | 1.1 ± 0.17 | 0.942 ± 0.14 | 1.09 ± 0.06 | 1.16 ± 0.038 | 1.01 ± 0.14 | 1.15 ± 0.047 | 1.12 ± 0.028 | 1.16 ± 0.13 | 1.07 ± 0.11 | 1.07 ± 0.063 | 1.12 ± 0.11 | 1.18 ± 0.1 | 1.07 ± 0.067 | 1.17 ± 0.13 | 1.08 ± 0.25 |
| C33A CERVIX | 0.928 ± 0.045 | 0.933 ± 0.052 | 0.956 ± 0.14 | 0.998 ± 0.032 | 0.978 ± 0.028 | 0.974 ± 0.096 | 0.946 ± 0.023 | 0.958 ± 0.049 | 0.888 ± 0.04 | 0.928 ± 0.034 | 0.919 ± 0.084 | 0.905 ± 0.039 | 0.978 ± 0.094 | 1.04 ± 0.055 | 0.959 ± 0.068 | 1.03 ± 0.094 |
| CADOES1 SOFT TISSUE | 0.972 ± 0.09 | 0.939 ± 0.14 | 0.952 ± 0.047 | 0.931 ± 0.074 | 0.993 ± 0.023 | 1.02 ± 0.061 | 0.991 ± 0.017 | 1.02 ± 0.068 | 0.96 ± 0.077 | 0.925 ± 0.056 | 0.982 ± 0.036 | 0.801 ± 0.17 | 0.841 ± 0.077 | 0.874 ± 0.037 | 0.741 ± 0.014 | 0.517 ± 0.017 |
| CAL51 BREAST | 0.901 ± 0.03 | 1.04 ± 0.033 | 1.07 ± 0.034 | 1.03 ± 0.038 | 1.04 ± 0.056 | 1.03 ± 0.028 | 1.02 ± 0.047 | 1.1 ± 0.043 | 0.944 ± 0.012 | 0.928 ± 0.059 | 0.999 ± 0.053 | 0.979 ± 0.018 | 1.05 ± 0.054 | 1.01 ± 0.038 | 0.816 ± 0.1 | 0.707 ± 0.09 |
| CAL72 BONE | 1.07 ± 0.057 | 1.06 ± 0.084 | 1.05 ± 0.073 | 1.05 ± 0.12 | 1.05 ± 0.055 | 1.08 ± 0.1 | 1.04 ± 0.082 | 1.04 ± 0.12 | 1.09 ± 0.029 | 1.07 ± 0.033 | 1.1 ± 0.037 | 1.08 ± 0.055 | 1.08 ± 0.027 | 1.13 ± 0.043 | 1.1 ± 0.084 | 1.11 ± 0.024 |
| CAL120 BREAST | 0.966 ± 0.049 | 1.01 ± 0.059 | 0.975 ± 0.058 | 0.983 ± 0.069 | 1.02 ± 0.07 | 0.998 ± 0.043 | 1.04 ± 0.017 | 1.04 ± 0.056 | 0.921 ± 0.03 | 0.919 ± 0.051 | 0.933 ± 0.039 | 0.924 ± 0.02 | 0.9877 ± 0.005 | 0.9757 ± 0.0032 | 0.981 ± 0.012 | 0.977 ± 0.029 |
| CASKI CERVIX | 0.938 ± 0.09 | 0.926 ± 0.033 | 0.959 ± 0.045 | 0.963 ± 0.049 | 1.03 ± 0.036 | 1.05 ± 0.099 | 0.993 ± 0.023 | 1.06 ± 0.041 | 0.945 ± 0.0061 | 0.899 ± 0.053 | 0.9873 ± 0.0035 | 0.979 ± 0.027 | 1.04 ± 0.074 | 1.05 ± 0.026 | 0.972 ± 0.042 | 0.988 ± 0.05 |
| CHLA90 AUTONOMIC GANGLIA | 1.01 ± 0.075 | 0.996 ± 0.049 | 0.984 ± 0.024 | 1.03 ± 0.033 | 0.962 ± 0.056 | 1.07 ± 0.043 | 1.07 ± 0.064 | 1.08 ± 0.053 | 1.02 ± 0.018 | 1.05 ± 0.043 | 1 ± 0.039 | 0.923 ± 0.025 | 0.987 ± 0.049 | 1.01 ± 0.019 | 1.06 ± 0.022 | 1.02 ± 0.066 |
| CME SYNOVIAL | 1.23 ± 0.043 | 1.29 ± 0.045 | 1.4 ± 0.15 | 1.44 ± 0.15 | 1.37 ± 0.059 | 1.38 ± 0.14 | 1.33 ± 0.18 | 1.21 ± 0.039 | 1.18 ± 0.1 | 1.29 ± 0.17 | 1.32 ± 0.16 | 1.24 ± 0.13 | 1.36 ± 0.16 | 1.44 ± 0.19 | 1.4 ± 0.073 | 1.22 ± 0.09 |
| COLO320DM LARGE INTESTINE | 1.06 ± 0.14 | 1 ± 0.062 | 1.07 ± 0.081 | 1.07 ± 0.04 | 1.03 ± 0.063 | 1.15 ± 0.086 | 1.08 ± 0.077 | 1.12 ± 0.031 | 1.11 ± 0.093 | 1.07 ± 0.019 | 1.08 ± 0.079 | 1.1 ± 0.16 | 1.15 ± 0.16 | 1.21 ± 0.069 | 1.12 ± 0.065 | 1.19 ± 0.17 |
